The text below walks through data of US9340590B2 (priority 2011, dated 2016).

What all share (test): cell-based
For test [1], the target named is hNav1.7 (Homo sapiens, UniProt Q15858). The test is classed as cell-based. The conditions noted are these: IonWorks Quattro, use, […], read-out: IWQ Use Nav1.7. Background: Patch clamp records ionic current or voltage across a cell membrane.
The target in test [2] is hNav1.3 (Homo sapiens, UniProt Q9NY46). The conditions noted are these: IonWorks Quattro, use, […], read-out: IWQ Use Nav1.3.
The target of test [3] is hNav1.5 (Homo sapiens, UniProt Q14524). The conditions noted are these: IonWorks Quattro, use, […], read-out: IWQ Use Nav1.5.

pIC50: −log10 of the molar value. Where two headings read alike, the source gives them in different places. Positions of bridges follow the written chain, without caps; N, C: chain ends. Non-standard residues stand in square brackets, D forms with d. Residues, ends and D or L forms follow the SMILES beside them. Phe(4-COOH) = N[C@@H](Cc1ccc(C(=O)O)cc1)C(=O)O; Arg(Me2s) = CN=C(NC)NCCC[C@H](N)C(=O)O; Phe(4-I) = N[C@@H](Cc1ccc(I)cc1)C(=O)O; Lys(Me2) = CN(C)CCCC[C@H](N)C(=O)O; NMeF = CN[C@@H](Cc1ccccc1)C(=O)O; 2Pal = N[C@@H](Cc1ccccn1)C(=O)O

Chain of hNav1.3 (Q9NY46 whole entry, looked up): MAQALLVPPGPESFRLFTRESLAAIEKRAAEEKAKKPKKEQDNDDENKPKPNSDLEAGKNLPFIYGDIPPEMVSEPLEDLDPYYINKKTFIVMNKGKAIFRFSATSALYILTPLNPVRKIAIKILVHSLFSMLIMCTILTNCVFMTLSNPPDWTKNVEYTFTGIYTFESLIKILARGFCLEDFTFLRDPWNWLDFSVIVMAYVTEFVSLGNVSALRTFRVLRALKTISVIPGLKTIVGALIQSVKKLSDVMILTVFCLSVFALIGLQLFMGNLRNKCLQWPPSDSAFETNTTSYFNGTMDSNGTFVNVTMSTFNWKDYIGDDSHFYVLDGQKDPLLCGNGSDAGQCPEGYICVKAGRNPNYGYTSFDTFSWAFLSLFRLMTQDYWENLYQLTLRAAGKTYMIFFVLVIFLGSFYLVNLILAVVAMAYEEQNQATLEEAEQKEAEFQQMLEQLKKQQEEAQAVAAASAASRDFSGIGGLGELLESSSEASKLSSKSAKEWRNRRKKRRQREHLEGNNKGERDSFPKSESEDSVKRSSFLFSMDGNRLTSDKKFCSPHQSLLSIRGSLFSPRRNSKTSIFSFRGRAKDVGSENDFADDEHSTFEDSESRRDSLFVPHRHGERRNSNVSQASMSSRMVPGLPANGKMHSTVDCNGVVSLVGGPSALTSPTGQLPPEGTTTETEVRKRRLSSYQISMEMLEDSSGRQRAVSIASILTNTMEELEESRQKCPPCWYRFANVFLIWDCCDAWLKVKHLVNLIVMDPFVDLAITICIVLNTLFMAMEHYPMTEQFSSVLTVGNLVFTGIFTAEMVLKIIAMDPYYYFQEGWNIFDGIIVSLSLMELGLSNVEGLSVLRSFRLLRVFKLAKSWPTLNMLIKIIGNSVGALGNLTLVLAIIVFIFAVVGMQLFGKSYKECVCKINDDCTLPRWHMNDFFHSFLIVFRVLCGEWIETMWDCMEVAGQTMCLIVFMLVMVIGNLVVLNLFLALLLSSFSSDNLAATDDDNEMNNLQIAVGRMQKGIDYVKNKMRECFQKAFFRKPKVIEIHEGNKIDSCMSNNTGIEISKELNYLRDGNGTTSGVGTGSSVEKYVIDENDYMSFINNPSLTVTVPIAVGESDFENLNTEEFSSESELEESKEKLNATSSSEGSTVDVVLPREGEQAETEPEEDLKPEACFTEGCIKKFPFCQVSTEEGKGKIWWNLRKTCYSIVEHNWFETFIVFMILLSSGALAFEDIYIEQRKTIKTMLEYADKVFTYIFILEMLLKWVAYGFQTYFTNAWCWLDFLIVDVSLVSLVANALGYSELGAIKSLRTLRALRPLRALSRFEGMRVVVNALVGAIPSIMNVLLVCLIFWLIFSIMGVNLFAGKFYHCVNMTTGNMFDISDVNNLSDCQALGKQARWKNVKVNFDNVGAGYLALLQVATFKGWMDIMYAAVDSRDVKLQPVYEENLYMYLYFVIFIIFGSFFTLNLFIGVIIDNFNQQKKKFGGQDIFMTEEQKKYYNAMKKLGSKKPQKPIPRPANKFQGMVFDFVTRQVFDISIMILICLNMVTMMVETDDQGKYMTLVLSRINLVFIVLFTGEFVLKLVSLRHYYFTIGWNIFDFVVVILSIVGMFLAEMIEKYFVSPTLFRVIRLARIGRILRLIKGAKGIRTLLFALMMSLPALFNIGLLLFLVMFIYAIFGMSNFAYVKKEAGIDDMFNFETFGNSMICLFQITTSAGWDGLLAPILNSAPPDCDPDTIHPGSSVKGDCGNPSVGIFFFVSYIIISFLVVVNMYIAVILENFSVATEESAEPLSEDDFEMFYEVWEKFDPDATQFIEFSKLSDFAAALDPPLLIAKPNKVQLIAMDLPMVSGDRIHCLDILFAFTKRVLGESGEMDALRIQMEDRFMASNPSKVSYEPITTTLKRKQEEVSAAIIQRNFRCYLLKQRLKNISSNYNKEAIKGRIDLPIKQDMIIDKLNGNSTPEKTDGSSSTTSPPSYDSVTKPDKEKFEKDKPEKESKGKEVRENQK
Chain of hNav1.5 (Q14524 whole entry, looked up): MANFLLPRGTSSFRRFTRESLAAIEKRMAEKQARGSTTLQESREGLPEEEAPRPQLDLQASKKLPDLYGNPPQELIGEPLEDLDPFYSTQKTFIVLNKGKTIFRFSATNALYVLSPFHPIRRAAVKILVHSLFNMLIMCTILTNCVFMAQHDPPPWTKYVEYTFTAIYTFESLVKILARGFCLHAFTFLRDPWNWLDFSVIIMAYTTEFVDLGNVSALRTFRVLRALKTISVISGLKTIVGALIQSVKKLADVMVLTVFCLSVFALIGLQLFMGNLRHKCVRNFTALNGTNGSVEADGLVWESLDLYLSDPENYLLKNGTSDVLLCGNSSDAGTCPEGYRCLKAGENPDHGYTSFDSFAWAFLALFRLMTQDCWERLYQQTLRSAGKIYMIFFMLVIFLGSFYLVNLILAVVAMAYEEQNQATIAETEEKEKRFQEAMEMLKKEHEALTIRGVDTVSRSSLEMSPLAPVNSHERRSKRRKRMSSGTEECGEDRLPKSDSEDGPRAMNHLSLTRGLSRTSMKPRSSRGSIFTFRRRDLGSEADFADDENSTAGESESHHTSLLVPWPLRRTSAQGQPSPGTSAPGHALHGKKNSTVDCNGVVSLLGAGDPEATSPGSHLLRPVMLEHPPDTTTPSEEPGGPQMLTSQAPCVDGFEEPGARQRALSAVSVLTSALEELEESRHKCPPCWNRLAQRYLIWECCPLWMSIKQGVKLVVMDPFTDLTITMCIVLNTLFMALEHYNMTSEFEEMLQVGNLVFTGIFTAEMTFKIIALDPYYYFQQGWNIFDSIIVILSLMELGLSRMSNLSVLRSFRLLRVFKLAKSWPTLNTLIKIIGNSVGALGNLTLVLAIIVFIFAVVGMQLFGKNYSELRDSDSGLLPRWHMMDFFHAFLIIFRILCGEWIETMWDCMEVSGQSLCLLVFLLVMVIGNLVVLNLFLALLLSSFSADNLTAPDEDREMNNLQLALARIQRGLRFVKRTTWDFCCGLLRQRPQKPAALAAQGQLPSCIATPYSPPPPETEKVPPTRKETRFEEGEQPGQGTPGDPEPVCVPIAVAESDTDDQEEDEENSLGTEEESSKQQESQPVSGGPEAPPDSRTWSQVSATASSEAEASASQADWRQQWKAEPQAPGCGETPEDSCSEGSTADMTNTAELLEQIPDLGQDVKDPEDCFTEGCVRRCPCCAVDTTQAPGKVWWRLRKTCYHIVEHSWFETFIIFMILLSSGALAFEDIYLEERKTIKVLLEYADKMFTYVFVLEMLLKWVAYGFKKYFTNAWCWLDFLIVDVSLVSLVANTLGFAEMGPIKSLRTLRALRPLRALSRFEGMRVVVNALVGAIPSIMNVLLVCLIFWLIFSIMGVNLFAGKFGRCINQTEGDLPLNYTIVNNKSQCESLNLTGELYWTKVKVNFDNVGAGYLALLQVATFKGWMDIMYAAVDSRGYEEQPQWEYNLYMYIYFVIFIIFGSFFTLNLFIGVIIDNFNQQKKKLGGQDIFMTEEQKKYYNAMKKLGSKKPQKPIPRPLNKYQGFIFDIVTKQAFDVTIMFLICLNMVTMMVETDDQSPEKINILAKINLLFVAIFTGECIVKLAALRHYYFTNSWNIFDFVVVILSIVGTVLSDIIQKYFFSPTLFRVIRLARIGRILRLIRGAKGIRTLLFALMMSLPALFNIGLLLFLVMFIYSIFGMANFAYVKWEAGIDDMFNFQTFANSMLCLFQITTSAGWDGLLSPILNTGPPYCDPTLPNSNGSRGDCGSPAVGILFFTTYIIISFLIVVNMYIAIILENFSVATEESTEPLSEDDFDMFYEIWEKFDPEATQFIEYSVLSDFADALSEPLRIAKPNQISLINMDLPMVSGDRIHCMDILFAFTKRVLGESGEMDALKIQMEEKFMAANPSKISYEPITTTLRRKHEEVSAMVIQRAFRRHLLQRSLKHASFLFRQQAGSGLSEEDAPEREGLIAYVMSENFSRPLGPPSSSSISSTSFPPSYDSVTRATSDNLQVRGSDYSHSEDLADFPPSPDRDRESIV

Regarding `CC[C@H](C)[C@@H]1NC(=O)[C@@H]2CSSC[C@@H]3NC(=O)[C@H](C(C)C)NC(=O)[C@H](CC(C)C)NC(=O)[C@H](CC(N)=O)NC(=O)[C@@H]4CCCN4C(=O)[C@H](CCCNC(=N)N)NC(=O)[C@H](CSSC[C@H](NC(=O)[C@@H](N)CC(=O)O)C(=O)N[C@@H](CC(C)C)C(=O)NCC(=O)N[C@@H](Cc4ccccc4)C(=O)N[C@@H](CCSC)C(=O)N[C@@H](CCCNC(=N)N)C(=O)N[C@@H](CCCCN)C(=O)N2)NC(=O)[C@H](CSSC[C@@H](C(=O)N[C@@H](CCCCN)C(=O)N[C@@H](Cc2ccc(O)cc2)C(=O)N[C@H](C(=O)N[C@@H](Cc2ccccc2)C(N)=O)C(C)C)NC(=O)[C@H](Cc2c[nH]c4ccccc24)NC(=O)[C@H](CCCCN)NC(=O)[C@H](Cc2c[nH]cn2)NC(=O)[C@H](Cc2ccc(C(=O)O)cc2)NC(=O)[C@H](CCCNC(=N)N)NC(=O)[C@H](CO)NC3=O)NC(=O)[C@H](CCCCN)NC(=O)[C@H](CC(=O)O)NC(=O)[C@H](CC(N)=O)NC(=O)[C@H](CC(=O)O)NC(=O)[C@@H]2CCCN2C1=O` [compound 350] (H-DCLGFMRKCIPDNDKCCRPNLVCSR[Phe(4-COOH)]HKWCKYVF-NH2; disulfide 2-17, 9-23, 16-30), the pIC50 in test [1] (Table 22) was 6.40; in test [2] (Table 22), 5.58; in test [3] (Table 22), 5.19.
For `CC[C@H](C)[C@@H]1NC(=O)[C@@H]2CSSC[C@@H]3NC(=O)[C@H](C(C)C)NC(=O)[C@H](CC(C)C)NC(=O)[C@H](CC(N)=O)NC(=O)[C@@H]4CCCN4C(=O)[C@H](CCCNC(=N)N)NC(=O)[C@H](CSSC[C@H](NC(=O)[C@@H](N)CC(=O)O)C(=O)N[C@@H](CC(C)C)C(=O)NCC(=O)N[C@@H](Cc4ccccc4)C(=O)N[C@@H](CCSC)C(=O)N[C@@H](CCCNC(=N)N)C(=O)N[C@@H](CCCCN)C(=O)N2)NC(=O)[C@H](CSSC[C@@H](C(=O)N[C@@H](CCCCN)C(=O)N[C@@H](Cc2ccc(O)cc2)C(=O)N[C@H](C(=O)N[C@@H](Cc2ccccc2)C(N)=O)C(C)C)NC(=O)[C@H](Cc2c[nH]c4ccccc24)NC(=O)[C@H](CCCCN)NC(=O)[C@H](Cc2ccc(C(=O)O)cc2)NC(=O)[C@H]([C@@H](C)O)NC(=O)[C@H](CCCNC(=N)N)NC(=O)[C@H](CO)NC3=O)NC(=O)[C@H](CCCCN)NC(=O)[C@H](CC(=O)O)NC(=O)[C@H](CC(N)=O)NC(=O)[C@H](CC(=O)O)NC(=O)[C@@H]2CCCN2C1=O` [compound 351] (H-DCLGFMRKCIPDNDKCCRPNLVCSRT[Phe(4-COOH)]KWCKYVF-NH2; disulfide 2-17, 9-23, 16-30), the pIC50 in test [1] (Table 23) was 4.81; in test [2] (Table 23) it was 5.08; in test [3] (Table 23), 5.18.
On to `CC[C@H](C)[C@@H]1NC(=O)[C@@H]2CSSC[C@@H]3NC(=O)[C@H](C(C)C)NC(=O)[C@H](CC(C)C)NC(=O)[C@H](CC(N)=O)NC(=O)[C@@H]4CCCN4C(=O)[C@H](CCCNC(=N)N)NC(=O)[C@H](CSSC[C@H](NC(=O)[C@@H](N)CC(=O)O)C(=O)N[C@@H](CC(C)C)C(=O)NCC(=O)N[C@@H](Cc4ccccc4)C(=O)N[C@@H](CCSC)C(=O)N[C@@H](CCCNC(=N)N)C(=O)N[C@@H](CCCCN)C(=O)N2)NC(=O)[C@H](CSSC[C@@H](C(=O)N[C@@H](CCCCN)C(=O)N[C@@H](Cc2ccc(O)cc2)C(=O)N[C@H](C(=O)N[C@@H](Cc2ccccc2)C(N)=O)C(C)C)NC(=O)[C@H](Cc2c[nH]c4ccccc24)NC(=O)[C@H](CCCCN)NC(=O)[C@H](Cc2ccccn2)NC(=O)[C@H]([C@@H](C)O)NC(=O)[C@H](CCCNC(=N)N)NC(=O)[C@H](CO)NC3=O)NC(=O)[C@H](CCCCN)NC(=O)[C@H](CC(=O)O)NC(=O)[C@H](CC(N)=O)NC(=O)[C@H](CC(=O)O)NC(=O)[C@@H]2CCCN2C1=O` [compound 352] (H-DCLGFMRKCIPDNDKCCRPNLVCSRT[2Pal]KWCKYVF-NH2; disulfide 2-17, 9-23, 16-30), for which the pIC50 in test [1] (Table 23) was 7.05; in test [2] (Table 23), 7.30; in test [3] (Table 23), 5.11.
Turning to `CC[C@H](C)[C@@H]1NC(=O)[C@@H]2CSSC[C@@H]3NC(=O)[C@H](C(C)C)NC(=O)[C@H](CC(C)C)NC(=O)[C@H](CC(N)=O)NC(=O)[C@@H]4CCCN4C(=O)[C@H](CCCNC(=N)N)NC(=O)[C@H](CSSC[C@H](NC(=O)[C@@H](N)CC(=O)O)C(=O)N[C@@H](CC(C)C)C(=O)NCC(=O)N[C@@H](Cc4ccccc4)C(=O)N[C@@H](CCSC)C(=O)N[C@@H](CCCNC(=N)N)C(=O)N[C@@H](CCCCN)C(=O)N2)NC(=O)[C@H](CSSC[C@@H](C(=O)N[C@@H](CCCCN)C(=O)N[C@@H](Cc2ccc(O)cc2)C(=O)N[C@H](C(=O)N[C@@H](Cc2ccccc2)C(N)=O)C(C)C)NC(=O)[C@H](Cc2c[nH]c4ccccc24)NC(=O)[C@H](CCCCN)NC(=O)[C@H](CCCNC(=NC)NC)NC(=O)[C@H]([C@@H](C)O)NC(=O)[C@H](CCCNC(=N)N)NC(=O)[C@H](CO)NC3=O)NC(=O)[C@H](CCCCN)NC(=O)[C@H](CC(=O)O)NC(=O)[C@H](CC(N)=O)NC(=O)[C@H](CC(=O)O)NC(=O)[C@@H]2CCCN2C1=O` [compound 353] (H-DCLGFMRKCIPDNDKCCRPNLVCSRT[Arg(Me2s)]KWCKYVF-NH2; disulfide 2-17, 9-23, 16-30), the pIC50 in test [1] (Table 23) was 5.70; in test [2] (Table 23), 5.62; in test [3] (Table 23), 5.08.
As for `CC[C@H](C)[C@@H]1NC(=O)[C@@H]2CSSC[C@@H]3NC(=O)[C@H](C(C)C)NC(=O)[C@H](CC(C)C)NC(=O)[C@H](CC(N)=O)NC(=O)[C@@H]4CCCN4C(=O)[C@H](CCCNC(=N)N)NC(=O)[C@H](CSSC[C@H](NC(=O)[C@@H](N)CC(=O)O)C(=O)N[C@@H](CC(C)C)C(=O)NCC(=O)N[C@@H](Cc4ccccc4)C(=O)N[C@@H](CCSC)C(=O)N[C@@H](CCCNC(=N)N)C(=O)N[C@@H](CCCCN)C(=O)N2)NC(=O)[C@H](CSSC[C@@H](C(=O)N[C@@H](CCCCN)C(=O)N[C@@H](Cc2ccc(O)cc2)C(=O)N[C@H](C(=O)N[C@@H](Cc2ccccc2)C(N)=O)C(C)C)NC(=O)[C@H](Cc2c[nH]c4ccccc24)NC(=O)[C@H](CCCCN)NC(=O)[C@H](CCCCN(C)C)NC(=O)[C@H]([C@@H](C)O)NC(=O)[C@H](CCCNC(=N)N)NC(=O)[C@H](CO)NC3=O)NC(=O)[C@H](CCCCN)NC(=O)[C@H](CC(=O)O)NC(=O)[C@H](CC(N)=O)NC(=O)[C@H](CC(=O)O)NC(=O)[C@@H]2CCCN2C1=O` [compound 354] (H-DCLGFMRKCIPDNDKCCRPNLVCSRT[Lys(Me2)]KWCKYVF-NH2; disulfide 2-17, 9-23, 16-30), the pIC50 in test [1] (Table 23) was 5.15; in test [2] (Table 23) it was 5.42; in test [3] (Table 23) it was 4.91.
In the case of `CC[C@H](C)[C@@H]1NC(=O)[C@@H]2CSSC[C@@H]3NC(=O)[C@H](C(C)C)NC(=O)[C@H](CC(C)C)NC(=O)[C@H](CC(N)=O)NC(=O)[C@@H]4CCCN4C(=O)[C@H](CCCNC(=N)N)NC(=O)[C@H](CSSC[C@H](NC(=O)[C@@H](N)CC(=O)O)C(=O)N[C@@H](CC(C)C)C(=O)NCC(=O)N[C@@H](Cc4ccccc4)C(=O)N[C@@H](CCSC)C(=O)N[C@@H](CCCNC(=N)N)C(=O)N[C@@H](CCCCN)C(=O)N2)NC(=O)[C@H](CSSC[C@@H](C(=O)N[C@@H](CCCCN)C(=O)N[C@@H](Cc2ccc(O)cc2)C(=O)N[C@H](C(=O)N[C@@H](Cc2ccccc2)C(N)=O)C(C)C)NC(=O)[C@H](Cc2ccc(I)cc2)NC(=O)[C@H](CCCCN)NC(=O)[C@H](Cc2c[nH]cn2)NC(=O)[C@H]([C@@H](C)O)NC(=O)[C@H](CCCNC(=N)N)NC(=O)[C@H](CO)NC3=O)NC(=O)[C@H](CCCCN)NC(=O)[C@H](CC(=O)O)NC(=O)[C@H](CC(N)=O)NC(=O)[C@H](CC(=O)O)NC(=O)[C@@H]2CCCN2C1=O` [compound 358] (H-DCLGFMRKCIPDNDKCCRPNLVCSRTHK[Phe(4-I)]CKYVF-NH2; disulfide 2-17, 9-23, 16-30), the pIC50 in test [1] (Table 24) was 6.00; in test [2] (Table 24), 5.90; in test [3] (Table 24), 4.83.
On the same counts, the results for `CC[C@H](C)[C@@H]1NC(=O)[C@@H]2CSSC[C@@H]3NC(=O)[C@H](C(C)C)NC(=O)[C@H](CC(C)C)NC(=O)[C@H](CC(N)=O)NC(=O)[C@@H]4CCCN4C(=O)[C@H](CCCNC(=N)N)NC(=O)[C@H](CSSC[C@H](NC(=O)[C@@H](N)CC(=O)O)C(=O)N[C@@H](CC(C)C)C(=O)NCC(=O)N[C@@H](Cc4ccccc4)C(=O)N[C@@H](CCSC)C(=O)N[C@@H](CCCNC(=N)N)C(=O)N[C@@H](CCCCN)C(=O)N2)NC(=O)[C@H](CSSC[C@@H](C(=O)N[C@@H](CCCCN)C(=O)N[C@@H](Cc2ccc(O)cc2)C(=O)N[C@H](C(=O)N[C@@H](Cc2ccccc2)C(N)=O)C(C)C)NC(=O)[C@H](Cc2ccccc2)N(C)C(=O)[C@H](CCCCN)NC(=O)[C@H](Cc2c[nH]cn2)NC(=O)[C@H]([C@@H](C)O)NC(=O)[C@H](CCCNC(=N)N)NC(=O)[C@H](CO)NC3=O)NC(=O)[C@H](CCCCN)NC(=O)[C@H](CC(=O)O)NC(=O)[C@H](CC(N)=O)NC(=O)[C@H](CC(=O)O)NC(=O)[C@@H]2CCCN2C1=O` [compound 359] (H-DCLGFMRKCIPDNDKCCRPNLVCSRTHK[NMeF]CKYVF-NH2; disulfide 2-17, 9-23, 16-30) are 4.72, 5.13 and 4.72.
